How the values were obtained:
Assay in all cases: Post-emergence test/greenhouse, % damage after three weeks
Assay type in all cases: in vivo
Xanthium strumarium = test system: Xanthium strumarium
Text: (§1) The expected action for a given combination of two herbicides can be calculated as follows (cf. COLBY, S. R.: “Calculating synergistic and antagonistic responses of herbicide combinations”, Weeds 15, pages 20-22, 1967):
(§2) If • X=% damage by herbicide A (active compound of the formula I) at an application rate of p kg/ha and • Y=% damage by herbicide B (active compound of the formula II) at an application rate of q kg/ha and • E=the expected damage of herbicides A+B at an application rate of p+q kg/ha, then
(§3) If the actual damage exceeds the calculated value, the combination has a superadditive effect, that is to say a synergistic effect.
(§4) Test plants are grown under control conditions (temperature and light). Once the plants have reached a height of 5 to 15 cm, the test compound or the combination of test compounds is applied by spraying such that the particular amounts of active compound desired are applied per unit area. The concentration of the spray liquor is chosen so that the particular amounts of active compound desired are applied in 500 litres of water/ha.
(§5) Following the spray application, the plant containers are kept in the greenhouse under constant light and temperature conditions.
(§6) After three weeks, the degree of damage to the plants is rated in % damage in comparison to the development of the untreated control.
(§7) The figures denote: • 0%=no effect (like untreated control) • 100%=total destruction

Avena fatua = test system: Avena fatua
Text: as §1, §2, §3, §4, §5, §6, §7

Bromus secalinus = details: for pest or weed control at 30 g/ha: 30 g of ai/ha
Procedure: as §1, §3
(§8) Test plants are grown under control conditions (temperature and light).
as §5, §6

Setaria viridis = details: for Setria viridis observed: post-emergence
Text: as §1, §2, §3, §4, §5, §6, §7

Lolium perenne = test system: Lolium perenne
Cyperus esculentus = test system: Cyperus esculentus
Text: as §1, §2, §3, §4, §5, §6, §7

Alopecurus myosuroides = test system: Alopecurus myosuroides
Text: as §1, §2, §3, §4, §5, §6, §7

Chenopodium album = test system: Chenopodium album
Text: as §1, §2, §3, §4, §5, §6, §7

Digitaria sanguinalis = test system: Digitaria sanguinalis
Text: as §1, §2, §3, §4, §5, §6, §7

Matricaria inodora = details: 30 g of ai/ha
Text: as §1, §2, §3, §4, §5, §6, §7

Eriochloa villosa = test system: Eriochloa villosa
Polygonum convolvolus = details: 15 g of ai/ha
Veronica persicaria = test system: Veronica persicaria
Procedure: as §1, §3, §8, §5, §6

[1] = Bromus secalinus, post-emergence, 504 h, read-out: Bromus secalinus observed

COC(=O)c1cc(Oc2ccc(Cl)cc2Cl)ccc1[N+](=O)[O-] [bifenox, methyl 5-(2,4-dichlorophenoxy)-2-nitrobenzoate, reference compound]
Xanthium strumarium observed (Xanthium strumarium; 60 g of ai/ha): 60%
Xanthium strumarium observed (Xanthium strumarium; 125 g of ai/ha): 60%
Xanthium strumarium observed (Xanthium strumarium; 250 g of ai/ha): 70%
Avena fatua observed (Avena fatua; 60 g of ai/ha): 10%
Avena fatua observed (Avena fatua; 125 g of ai/ha): 10%
Avena fatua observed (Avena fatua; 250 g of ai/ha): 10%
pest or weed control at 60 g/ha (Bromus secalinus; Bromus secalinus, post-emergence, 504 h, 60 g of ai/ha, read-out: Bromus secalinus observed): 0%
pest or weed control at 125 g/ha (Bromus secalinus; Bromus secalinus, post-emergence, 504 h, 125 g of ai/ha, read-out: Bromus secalinus observed): 0%
pest or weed control at 250 g/ha (Bromus secalinus; Bromus secalinus, post-emergence, 504 h, 250 g of ai/ha, read-out: Bromus secalinus observed): 10%

CCOC(=O)COc1cc(-c2nn(C)c(OC(F)F)c2Cl)c(F)cc1Cl [pyraflufen ethyl]
Setria viridis observed (Setaria viridis; application rate 2 g of ai/ha): 40%
Setria viridis observed (Setaria viridis; application rate 4 g of ai/ha): 40%

CCOC(=O)COc1cc(-c2nn(C)c(OC(F)F)c2Cl)c(F)cc1Cl [pyraflufen-ethyl]
Lolium perenne observed (Lolium perenne; 2 g of ai/ha): 0%
Lolium perenne observed (Lolium perenne; 4 g of ai/ha): 30%
pest or weed control at 2 g/ha (Bromus secalinus; [1]): 30%
pest or weed control at 4 g/ha (Bromus secalinus; [1]): 30%

CCOC(=O)C(Cl)Cc1cc(-n2nc(C)n(C(F)F)c2=O)c(F)cc1Cl (centres unmarked) [carfentrazone-ethyl, 2-(4-chloro-2-fluoro-5-(2-chloro-2-ethoxycarbonylethyl)phenyl)-4-difluoromethyl-5-methyl-2,4-dihydro-3H-1,2,4-triazol-3-one, reference compound]
Cyperus esculentus observed (Cyperus esculentus; 4 g of ai/ha): 0%
Cyperus esculentus observed (Cyperus esculentus; 8 g of ai/ha): 30%
Alopecurus myosuroides observed (Alopecurus myosuroides; 8 g of ai/ha): 0%
Chenopodium album observed (Chenopodium album; 2 g of ai/ha): 0%
Chenopodium album observed (Chenopodium album; 4 g of ai/ha): 30%
Chenopodium album observed (Chenopodium album; 8 g of ai/ha): 50%

COc1nc(NC(=O)NS(=O)(=O)c2ccccc2C(F)(F)F)nc(C(F)(F)F)n1 [tritosulfuron]
Digitaria sanguinalis observed (Digitaria sanguinalis; 15 g of ai/ha): 30%
Digitaria sanguinalis observed (Digitaria sanguinalis; 30 g of ai/ha): 40%
Setaria viridis observed (Setaria viridis; 30 g of ai/ha): 0%
Lolium perenne observed (Lolium perenne; 15 g of ai/ha): 0%
Lolium perenne observed (Lolium perenne; 30 g of ai/ha): 0%

CSc1nnc(C(C)(C)C)c(=O)n1N [metribuzin]
Xanthium strumarium observed (Xanthium strumarium; 30 g of ai/ha): 40%
Matricaria inodora observed (Matricaria inodora): 0%

O=C(Nc1ccc(F)cc1F)c1cccnc1Oc1cccc(C(F)(F)F)c1 [diflufenican, N-(2,4-di-fluorophenyl)-2-(3-trifluoromethylphenoxy)pyridine-3-carboxamide, reference compound]
Alopecurus myosuroides observed (Alopecurus myosuroides; 30 g of ai/ha): 50%
Alopecurus myosuroides observed (Alopecurus myosuroides; 60 g of ai/ha): 50%
Alopecurus myosuroides observed (Alopecurus myosuroides; 125 g of ai/ha): 70%
Avena fatua observed (Avena fatua; 125 g of ai/ha): 50%
pest or weed control at 30 g/ha (Bromus secalinus; [1]): 10%

COC(=O)c1ccc(CNS(C)(=O)=O)cc1S(=O)(=O)NC(=O)Nc1nc(OC)cc(OC)n1 [mesosulfuron]
Cyperus esculentus observed (Cyperus esculentus; 8 g of ai/ha): 70%
Cyperus esculentus observed (Cyperus esculentus; 15 g of ai/ha): 70%
Bromus secalinus observed (Bromus secalinus; 8 g of ai/ha): 0%

COc1cc(OC)nc(NC(=O)NS(=O)(=O)c2ncccc2C(=O)N(C)C)n1 [nicosulfuron]
Eriochloa villosa observed (Eriochloa villosa; 30 g of ai/ha): 90%

N#Cc1cc(Br)c(O)c(Br)c1 [bromoxynil, 3,5-dibromo-4-hydroxybenzonitrile, reference compound]
Activity against Chenopodium album (%) (Chenopodium album; 250 g of a.i./ha): 80%

CS(=O)(=O)c1ccc(C(=O)C2C(=O)CCCC2=O)c([N+](=O)[O-])c1 [mesotrione]
Alopecurus myosuroides observed (Alopecurus myosuroides; 15 g of ai/ha): 0%
Alopecurus myosuroides observed (Alopecurus myosuroides; 30 g of ai/ha): 0%
Polygonum convolvolus observed (Polygonum convolvolus): 50%
pest or weed control at 15 g/ha (Bromus secalinus; Bromus secalinus, post-emergence, 504 h, 15 g of ai/ha, read-out: Bromus secalinus observed): 0%
pest or weed control at 30 g/ha (Bromus secalinus; [1]): 0%

COc1cc(OC)nc(NC(=O)NS(=O)(=O)N(C)S(C)(=O)=O)n1 [amidosulfuron, N-(4,6-di-methoxypyrimidin-2-yl)-N′—(N-methyl-N-methylsulphonylsulphamoyl)urea, reference compound]
Setaria viridis observed (Setaria viridis; 8 g of ai/ha): 0%
Setaria viridis observed (Setaria viridis; 15 g of ai/ha): 30%
Avena fatua observed (Avena fatua; 8 g of ai/ha): 0%
Avena fatua observed (Avena fatua; 15 g of ai/ha): 0%
pest or weed control at 8 g/ha (Bromus secalinus; Bromus secalinus, post-emergence, 504 h, 8 g of ai/ha, read-out: Bromus secalinus observed): 0%

COc1c(Cl)ccc(Cl)c1C(=O)O [dicamba, 3,6-dichloro-2-methoxybenzoic acid, reference compound]
Cyperus esculentus observed (Cyperus esculentus; 30 g of ai/ha): 0%
Cyperus esculentus observed (Cyperus esculentus; 125 g of ai/ha): 0%
Alopecurus myosuroides observed (Alopecurus myosuroides; 30 g of ai/ha): 0%
Alopecurus myosuroides observed (Alopecurus myosuroides; 60 g of ai/ha): 0%
Veronica persicaria observed (Veronica persicaria; 60 g of ai/ha): 40%

thifensulfuron-methyl
Setaria viridis observed (Setaria viridis; 15 g of ai/ha): 0%
Eriochloa villosa observed (Eriochloa villosa; 15 g of ai/ha): 10%
Bromus secalinus observed (Bromus secalinus; 8 g of ai/ha): 0%
Bromus secalinus observed (Bromus secalinus; 15 g of ai/ha): 0%

CC(Cl)CC(=O)Nc1c([N+](=O)[O-])cnn1-c1c(Cl)cc(C(F)F)cc1Cl (centres unmarked) [SLA 5599]
Avena fatua observed (Avena fatua; 30 g of ai/ha): 0%
Avena fatua observed (Avena fatua; 60 g of ai/ha): 0%
Lolium perenne observed (Lolium perenne; 30 g of ai/ha): 0%
Lolium perenne observed (Lolium perenne; 60 g of ai/ha): 30%
Veronica persicaria observed (Veronica persicaria; 30 g of ai/ha): 80%

Reference: patent US20120309622A1, “HERBICIDES CONTAINING SUBSTITUTED THIEN-3-YL-SULPHONYLAMINIO(THIO)CARBONYL-TRIAZOLIN(ETHI)ONES” (BAYER INTELLECTUAL PROPERTY GMBH, priority 2001, published 2012)
